This note sets out measurements from patent US10647690B2, “2,3-epoxy succinyl derivative, preparation method and use thereof” (Institute of Pharmacology and Toxicology Academy of …, priority 2016, dated 2020).

This assay addresses T1, Cathepsin K (Homo sapiens, UniProt P43235).
T1 construct: purchased Biovision K150-100
T1 sequence (P43235 115-329): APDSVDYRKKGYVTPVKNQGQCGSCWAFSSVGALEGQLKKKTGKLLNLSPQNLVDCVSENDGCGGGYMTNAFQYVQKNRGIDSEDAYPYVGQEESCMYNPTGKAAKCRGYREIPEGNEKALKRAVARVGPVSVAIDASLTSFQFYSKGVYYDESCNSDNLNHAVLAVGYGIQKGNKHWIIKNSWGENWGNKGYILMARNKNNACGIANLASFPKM
Put plainly: Preliminary screening of Cathepsin K (Cathepsin K Inhibitor Screening Kit K150-100, Biovision). It counts as biochemical. The conditions noted are these: relative inhibition rate vs 10 μM FF-FMK control. Here is the method: 1. Method for preliminary screening of Cathepsin K:
Preliminary screening of Cathepsin K was performed by using Cathepsin K Inhibitor Screening Kit (Product No. K150-100) from Biovision Company.
1.1.1 Preparation of Cathepsin K enzyme solution: Cathepsin K enzyme (40 μl) and Cathepsin K reagent (80 μl) were added to Cathepsin K buffer (3.88 ml), and were mixed well, to prepare Cathepsin K enzyme solution with a volume of 4 ml, which was placed on ice for further use.
1.1.2 Preparation of a compound solution: different compounds were separately weighed and dissolved in DMSO (methyl sulfoxide), to prepare solutions at a concentration of 30 mM as stock solutions, and for some insoluble compounds, they were prepared into solutions at a concentration of 10 mM as stock solutions; the 30 mM and 10 mM compound stock solutions were diluted to 1 mM and 100 μM DMSO solutions, respectively; 1 mM and 100 μM compound DMSO solutions (2 μl) were separately added to CTSK buffer (18 μl), to prepare compound solutions at a final concentration of 100 μM and 10 μM, respectively, wherein the concentration of DMSO was 10%.
1.1.3 Preparation of Cathepsin K substrate solution: Cathepsin K substrate (160 μl) was added to Cathepsin K buffer (3.44 ml), and mixed homogeneously, to prepare Cathepsin K substrate solution with a volume of 3.6 ml, which was placed on ice for further use.
1.2 Method for screening Cathepsin K inhibitor: Cathepsin K enzyme solution (prepared in Item 1.1.1) was added to a 384-well plate (ProxiPlate-384 Plus, Perkinelmer) at 10 μl/well, and centrifuged at 1000 rpm for 1 min; the compound solution (prepared in Item 1.1.2) was then added at 2 µl/well, and centrifuged at 1000 rpm for 1 min, and every concentration was repeated in two wells; the plate was placed in a 25° C. incubator for 15 min; Cathepsin K substrate solution was then added at 8 μl/well, and centrifuged at 1000 rpm for 1 min; and finally, the fluorescence signal was read in Enspire, wherein the exciting light was at a wavelength of 400 nm, the emitting light was at a wavelength of 505 nm, and continuous reading was performed at 37° C. for 120 min.
1.3 Data analysis: the slope (S) for all the samples was calculated by ΔRFU (RFU2−RFU1) and time ΔT (T2−T1), including negative control (Enzyme Control, EC) and positive control (Inhibitor Control, IC: 10 μM FF-FMK), and the calculation formula was as followed: Relative inhibition rate %=(SEC−SS)/(SEC−SIC)*100.

[1] abbreviates: 1 μM compound, replicate 1, read-out: Inhibition % (1 μM) replicate 1.
Where [2] appears, read: 1 μM compound, replicate 2, read-out: Inhibition % (1 μM) replicate 2.
[3] abbreviates: 10 μM compound, replicate 1, read-out: Inhibition % (10 μM) replicate 1.
[4] abbreviates: 10 μM compound, replicate 2, read-out: Inhibition % (10 μM) replicate 2.

Like-named read-outs stand apart in the source and are kept apart here.

Take `CCOC(=O)[C@H]1O[C@@H]1C(=O)N[C@@H](CCSC)C(=O)N1CCOCC1` [Compound 12, (2s, 3s)-2-ethoxycarbonyl-3-[2-[(s)-4-methylthio-1-carbonyl-1-(morpholinyl)butane]formylamino]epoxysuccinic id]: the inhibition at 1 µM reads like this: under setting [1], 15.4%; under setting [2], 26.6%. For the same compound, the inhibition at 10 µM reads like this: under setting [3], 44%; under setting [4], 51.7%.
For `CCOC(=O)[C@H]1O[C@@H]1C(=O)N[C@@H](CCSC)C(=O)N1CC(C)CC(C)C1` (stereo partly shown) [Compound 41, (2s, 3s)-2-ethoxycarbonyl-3-[2-[(s)-4-methylthio-1-carbonyl-1-(3,5-dimethylpiperidinyl)butane]formylamino]epoxysuccinic acid] the same measures were 32.1%, 30.8%, 64.2% and 61%.
For `CCOC(=O)[C@H]1O[C@@H]1C(=O)N[C@@H](CSCc1ccccc1)C(=O)N1CCCC1` [Compound 22, (2s, 3s)-2-ethoxycarbonyl-3-[2-[(s)-3-benzylthio-1-carbonyl-1-(tetrahydropyrrolyl)propane]formylamino]epoxysuccinic acid] the same measures were 16%, -4.45%, 29.7% and 19.5%.
For `CCOC(=O)[C@H]1O[C@@H]1C(=O)N[C@@H](CCSC)C(=O)N1CCSCC1` [Compound 36, (2s, 3s)-2-ethoxycarbonyl-3-[2-[(s)-4-methylthio-1-carbonyl-1-(thiomorpholinyl)butane]formylamino]epoxysuccinic acid] the same measures were 17.5%, 21.6%, 61.4% and 63.5%.
As to `CCOC(=O)[C@H]1O[C@@H]1C(=O)N[C@@H](CCSC)C(=O)NC(C)CC` (stereo partly shown) [Compound 32], the inhibition at 1 µM was found to be 37.5% under setting [1] and 38.7% under setting [2]. Moreover, the inhibition at 10 µM by setting is: under setting [3], 36.2%; under setting [4], 40.6%.
For `CCOC(=O)[C@H]1O[C@@H]1C(=O)N[C@@H](CCSC)C(=O)NCC(C)(C)C` [Compound 30, (2s, 3s)-2-ethoxycarbonyl-3-[2-[(s)-4-methylthio-1-carbonyl-1-(neopentylamino)butane]formylamino]epoxysuccinic acid] the same measures were 31.6%, 26.9%, 29.6% and 31.7%.
For `CCOC(=O)[C@H]1O[C@@H]1C(=O)N[C@@H](CCSC)C(=O)N1CCCC1` [Compound 11, (2s, 3s)-2-ethoxycarbonyl-3-[2-[(s)-4-methylthio-1-carbonyl-1-(tetrahydropyrrolyl)butane]formylamino]epoxysuccinic acid] the same measures were 15.3%, -7.42%, 32% and 15.2%.
For the compound `CCOC(=O)[C@H]1O[C@@H]1C(=O)N[C@H](CSCc1ccccc1)C(=O)NCC(C)CC` (stereo partly shown) [Compound 14, (2s, 3s)-2-ethoxycarbonyl-3-[2-[(s)-3-benzylthio-1-carbonyl-1-(2-methylbutylamino)propane]formylamino]epoxysuccinic acid], the “Inhibition % (1 μM) replicate 1” value (1 μM compound, replicate 1) is listed as 31.16%. In addition, the “Inhibition % (1 μM) replicate 2” value (1 μM compound, replicate 2) is listed as −7.18%. The “Inhibition % (10 μM) replicate 1” value (10 μM compound, replicate 1) amounted to 42.39%. Besides, the “Inhibition % (10 μM) replicate 2” value (10 μM compound, replicate 2) is listed as 41.33%.
For `CCOC(=O)[C@H]1O[C@@H]1C(=O)N[C@@H](CCSC)C(=O)NCCc1ccc(C)cc1` [Compound 33, (2s, 3s)-2-ethoxycarbonyl-3-[2-[(s)-4-methylthio-1-carbonyl-1-(p-methylphenylethylamino)butane]formylamino]epoxysuccinic acid], the inhibition at 1 µM under setting [1] stood at 36.6% and the inhibition at 1 µM under setting [2] amounted to 33.1%. Besides, the inhibition at 10 µM was 34.9% under setting [3] and 36% under setting [4].
On to `CCOC(=O)[C@H]1O[C@@H]1C(=O)N[C@@H](CCSC)C(=O)NC(C)(C)CC` [Compound 31, (2s, 3s)-2-ethoxycarbonyl-3-[2-[(s)-4-methylthio-1-carbonyl-1-(tert-pentylamino)butane]formylamino]epoxysuccinic acid], for which the inhibition at 1 µM runs as follows: under setting [1], 30.5%; under setting [2], 36.6%. The inhibition at 10 µM is, setting by setting: under setting [3], 44.1%; under setting [4], 45.4%.
For `CCOC(=O)[C@H]1O[C@@H]1C(=O)N[C@@H](CSCc1ccccc1)C(=O)NC(C)CC` (stereo partly shown) [Compound 19, (2s, 3s)-2-ethoxycarbonyl-3-[2-[(s)-3-benzylthio-1-carbonyl-1-(1-methylpropylamino)propane]formylamino]epoxysuccinic acid] the same measures were 32%, 20.4%, 33.5% and 27.9%.
In the case of `CCCNC(=O)[C@H](CCSC)NC(=O)[C@H]1O[C@@H]1C(=O)OCC` [Compound 4, (2s, 3s)-2-ethoxycarbonyl-3-[2-[(s)-4-methylthio-1-carbonyl-1-(propylamino)butane]formylamino]epoxysuccinic acid], the inhibition at 1 µM is, setting by setting: under setting [1], 15.6%; under setting [2], 23.6%. For the same compound, the inhibition at 10 µM reads like this: under setting [3], 31.6%; under setting [4], 34.9%.
For the compound `CCOC(=O)[C@H]1O[C@@H]1C(=O)N[C@@H](CSCc1ccccc1)C(=O)NCCCCc1ccccc1` [Compound 20, (2s, 3s)-2-ethoxycarbonyl-3-[2-[(s)-3-benzylthio-1-carbonyl-1-(4-phenylbutylamino)propane]formylamino]epoxysuccinic acid], the inhibition at 1 µM is 30.2% under setting [1] and 37% under setting [2]. Moreover, the inhibition at 10 µM reads like this: under setting [3], 36.3%; under setting [4], 50.4%.
